These results are taken from US20040054182A1, “1h-imidazopyridine derivatives” (priority 2000, published 2004).

Structures can show the parent of a compound that is named as a salt.

For data set [1], the system named is human TNF-alpha. Briefly: Inhibitory action against TNF-alpha production in LPS-stimulated human PBMCs (sandwich ELISA of culture supernatant). In kind it is cell-based. As to conditions: 16 hours. The procedure: (§1) As an example of the excellent effects of the compounds of the present invention, experimental results of inhibitory actions against production of TNF-alpha and IL-1 beta in human cells will be shown below.
(§2) About 50 mL of whole blood was collected from each adult healthy volunteer by venepuncture, and poured into plastic tubes which containing 170 micro L of Novo-heparin 1000 (produced by Novo-Nordisk). Then, PBMCs (Peripheral Blood Mononuclear Cells) were separated using LeucoPREP™ (produced by Becton Dickinson) lymphocyte separation tube, and cultured with RPMI-1640 medium (produced by Nissui Pharmaceutical Co.) containing 2 mM L-glutamine (produced by Life Technologies), 2.5 U/mL penicillin-2.5 micro g/mL streptomycin solution (produced by Life Technologies) supplemented with 10% fetal calf serum (produced by Intergen Company) at 1×10^6 cells/mL.
(§3) Test compounds were dissolved in distilled ultra-pure water, dimethyl sulfoxide or 0.1 M hydrochloric acid at 20 micro M as far as possible, and then sequentially diluted with saline and used.
(§4) A hundred and eighty micro L of prepared human PBMCs were added to each well of 96-well plate (MicroTest III™ tissue culture plate; produced by Becton Dickinson) containing 10 micro L of adequate concentrations solution of test compounds. Then 30 minutes after, 10 micro L of 20 micro g/mL lipopolysaccharide (LPS) was added to each well, and cells in the well plate were covered with plastic lid and incubated for 16 hours at 37° C. in an atmosphere of 5% CO2.
(§5) The levels of human TNF-alpha and human IL-1 beta in culture supernatant were measured by constructed sandwich enzyme-linked immunosorbent assay method. Ninety-six-well microtiter plates were coated with diluted anti-cytokine antibody (capture/first-antibody). After washing the wells, the culture supernatant was diluted appropriately, added to each well and incubated. Then detection/second-antibody against cytokine and HRP (horseradish peroxidase)-conjugated/third-antibody against detection-antibody were added to wells sequentially, with interposed washing processes. After the final washing process, reaction of calorimetric quantification was started by addition of tetramethylbenzidine solution (produced by DAKO) to each well. After quenching the reaction by addition of 0.5 M sulfuric acid, optical absorbance of each well at 450 nm was measured by M-VmaxTM kinetic microplate reader (produced by Molecular Devices). Concentrations of cytokines were determined by Softmax™ (produced by Molecular Devices) quantification software in comparison with calibration curve derived from corresponding recombinant cytokines as standard. For measurement of human TNF-alpha, monoclonal mouse anti-human TNF-alpha (produced by ENDOGEN), polyclonal rabbit anti-human TNF-alpha (produced by Pharma Biotechnologie Hannover), peroxidase-conjugated donkey anti-rabbit IgG antibodies (produced by Jackson ImmunoRes. Labs.), and recombinant human TNF-alpha (produced by INTERGEN Company) were used for the capture-, detection-, HRP-conjugated-antibodies and the standard for calibration curve, respectively. […]

In data set [2] the test system is human IL-1 beta. In words: Inhibitory action against IL-1 beta production in LPS-stimulated human PBMCs (sandwich ELISA of culture supernatant). It is filed as cell-based. As to conditions: 16 hours. The procedure: as §1, §2, §3, §4, §5
Background: ELISA stands for enzyme-linked immunosorbent assay.

[3] abbreviates: administered concentration 0.01 micro mol/L.
The mark [4] stands for this setting: administered concentration 0.03 micro mol/L.
Setting [5] is: administered concentration 0.10 micro mol/L.
Where [6] appears, read: administered concentration 0.3 micro mol/L.
Where [7] appears, read: administered concentration 1.0 micro mol/L.

In the case of `FC(F)(F)c1nc2ccccc2c2c1nc(-c1ccc[nH]1)n2CCC1CNCCO1` (stereo not shown) [Example 102, 1-[2-(2-Morpholinyl)ethyl]-2-(2-pyrrolyl)-4-trifluoromethyl-1H-imidazo[4,5-c]-quinoline], the “Inhibitory action against TNF-alpha production in human cells (inhibitory percentages of cytokine production)” value stood at 96% in data set [1] (setting [3]); 84% in data set [1] (setting [4]); 25% in data set [1] (setting [5]); 23% in data set [1] (setting [6]); 27% in data set [1] (setting [7]). The “Inhibitory action against IL-1 beta production in human cells (inhibitory percentages of cytokine production)” value in data set [2] (setting [3]) was 81%; in data set [2] (setting [4]), 67%; in data set [2] (setting [5]), 48%; in data set [2] (setting [6]) it was 0%; in data set [2] (setting [7]), 0%.

Consider `NCCn1c(-c2ccc[nH]2)nc2c(C(F)(F)F)nc3ccccc3c21` [Example 109, 1-(2-Aminoethyl)-2-(2-pyrrolyl)-4-trifluoromethyl-1H-imidazo[4,5-c]quinoline], for which the melting point (in general, the temperature, or range, at which the solid turns liquid) lay within 195.5 to 196.5 °C.

For the molecule `Cc1ccc2c(c1)nc(C(F)(F)F)c1nc(-c3nccs3)n(CCC3CCNCC3)c12` (as salt: trifluoroacetate) (hydrate or solvate) [Example 88, 7-Methyl-1-[2-(4-piperidyl)ethyl]-2-(2-thiazolyl)-4-trifluoromethyl-1H-imidazo-[4,5-c]quinoline], the melting point is 239 to 241 °C (dec.).

With `FC(F)(F)c1nc2cc(Cl)ccc2c2c1nc(C1CCCCC1)n2CCC1CCNCC1` (as salt: trifluoroacetate) [Example 79, 7-Chloro-2-cyclohexyl-1-[2-(4-piperidyl)ethyl]-4-trifluoromethyl-1H-imidazo-[4,5-c]quinoline], the melting point is 236 to 237 °C (dec.).
